Experiment in all cases: DTP human tumour cell line panel, 48 h
In assay [1] the test system is 786-0 renal.
Assay [2] has as its system BT-549 breast.
For assay [3], the system named is HCT-116 colon.
Assay [4] deals with HT29 colon.
The subject of assay [5] is IGROV1 ovarian.
For assay [6], the system named is MDA-MB-435.
Assay [7] deals with SN12C renal.

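Method: 48-hour compound exposure of cells in 96-well plates, five concentrations, linear interpolation of endpoints. Abbreviation: GI50, concentration required for 50% inhibition of growth. Definition used: TGI = concentration required for complete inhibition of growth.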

In general, GI50 refers to the concentration that inhibits growth by half. As a reminder, the TGI is the concentration at which net growth stops. High values mean less potent growth arrest, low ones more potent growth arrest. As to `CCn1cnc(C[C@H](NC(=O)[C@@H](NC(=O)Nc2cc(C(F)(F)F)cc(C(F)(F)F)c2)C(C)(C)C)C(=O)OC)c1`, the GI50 in assay [1], in assay [2], in assay [3], in assay [4], in assay [5] and in assay [6] was greater than 10 µM throughout. Also, the GI50 in assay [7] was greater than 10 µM. In addition, the TGI in assay [1], in assay [2], in assay [3], in assay [4], in assay [5] and in assay [6] was greater than 10 µM in each case. For the same compound, the TGI in assay [7] was greater than 10 µM.
Take `COc1ccc(C(=O)c2no[n+]([O-])c2C(=O)c2ccc(OC)cc2)cc1`: the GI50 is 2.62 µM in assay [1]; 4.84 µM in assay [2]; 1.69 µM in assay [3]; 2.32 µM in assay [4]; 2.3 µM in assay [5]; 6.72 µM in assay [6]. Moreover, in assay [7], the GI50 is 9.06 µM. For the same compound, the TGI was found to be 6.32 µM in assay [1]; 17.2 µM in assay [2]; 3.05 µM in assay [3]; 5.53 µM in assay [5]; 22.9 µM in assay [6]; 22.1 µM in assay [7].
With `Cc1ccc(-c2csc3ncnc(Nc4cccc(O)c4)c23)cc1`, the GI50 is 19.9 µM in assay [1]; 37 µM in assay [2]; 20 µM in assay [3]; 39.7 µM in assay [4]; 17.8 µM in assay [5]; 16.7 µM in assay [6]. The GI50 in assay [7] is 34.1 µM. Moreover, the TGI in assay [1] is 42.8 µM; in assay [2], 98.2 µM; in assay [3], 39.6 µM; in assay [4] it was greater than 100 µM; in assay [5], 57.5 µM; in assay [6], 33.6 µM. Further, the TGI in assay [7] was greater than 100 µM.
Take `O=C1OC(=O)c2c1cc1cc3c(cc1c2-c1ccc2c(c1)OCO2)OCO3`: the TGI was 48.1 µM in assay [1]; greater than 100 µM in assay [2]; greater than 100 µM in assay [3]; greater than 100 µM in assay [4]; greater than 100 µM in assay [5]; greater than 100 µM in assay [6]. Also, in assay [7], the TGI was greater than 100 µM.
For `COc1cc(/C=C/C(=O)c2cccc(-n3cc(-c4ccccc4)[nH]c3=O)c2)ccc1O`, the GI50 in assay [1] was 2.37 µM; in assay [2], 2.91 µM; in assay [3], 1.8 µM; in assay [4], 3.77 µM; in assay [5] it was 2.22 µM; in assay [6], 2.58 µM. For the same compound, the GI50 in assay [7] was 3.02 µM. The TGI in assay [1] is 7.93 µM; in assay [2] it was 14.7 µM; in assay [3], 4.11 µM; in assay [4], greater than 100 µM; in assay [5], 7.28 µM; in assay [6] it was 8.91 µM. For the same compound, the TGI in assay [7] stood at 12 µM.
On to `Cc1cc(N)c2cc(NC(=O)/C=C\c3ccccc3Cl)ccc2n1`, for which the GI50 in assay [1] was 0.924 µM; in assay [2], 1.58 µM; in assay [3], 0.208 µM; in assay [4], 0.41 µM; in assay [5], 1.61 µM; in assay [6], 1.15 µM. Further, the GI50 in assay [7] was 1.36 µM. Moreover, the TGI worked out at 2.42 µM in assay [1]; 3.01 µM in assay [2]; 0.416 µM in assay [3]; 1.5 µM in assay [4]; 3.07 µM in assay [5]; 2.52 µM in assay [6]. Further, the TGI in assay [7] turned out to be 2.69 µM.
For `COc1cccc2c1C(=O)c1c(O)c3c(c(O)c1C2=O)C[C@@](O)(C(=O)CO)C[C@@H]3OC1CC2C(OCN2CN2COC3C(C)OC(O[C@H]4C[C@](O)(C(=O)CO)Cc5c(O)c6c(c(O)c54)C(=O)c4c(OC)cccc4C6=O)CC32)C(C)O1` (stereo partly specified), the GI50 in assay [1] is 0.00274 µM; in assay [2] it was 0.024 µM; in assay [3], 0.00564 µM; in assay [4], 0.00717 µM; in assay [5] it was 0.0014 µM; in assay [6], 0.013 µM. Further, the GI50 in assay [7] was 0.00924 µM. In addition, the TGI in assay [1] was 0.0343 µM; in assay [2], greater than 0.46 µM; in assay [3] it was greater than 0.39 µM; in assay [4], 0.115 µM; in assay [5], 0.127 µM; in assay [6], 0.0391 µM. Further, the TGI in assay [7] amounted to 0.101 µM.
Turning to `CN(C)Cc1c[nH]c2nc[nH]c(=O)c12`, the TGI in assay [1] was 76.4 µM; in assay [2], greater than 100 µM; in assay [3] it was 51.5 µM; in assay [4], greater than 100 µM; in assay [5], greater than 100 µM; in assay [6] it was greater than 100 µM. The TGI in assay [7] is greater than 100 µM.
On to `CCCCCCCCCCCCNCCCc1ccccc1`, for which the GI50 is 1.8 µM in assay [1]; 1.75 µM in assay [2]; 1.78 µM in assay [3]; 1.75 µM in assay [4]; 1.93 µM in assay [5]; 1.73 µM in assay [6]. The GI50 in assay [7] is 1.63 µM. The TGI was 3.33 µM in assay [1]; 3.19 µM in assay [2]; 3.17 µM in assay [3]; 3.21 µM in assay [4]; 3.49 µM in assay [5]; 3.17 µM in assay [6]. This compound displayed a TGI in assay [7] of 3.27 µM.
